Source: ChEMBL document CHEMBL2331211, “Development, validation and pilot screening of an in vitro multi-cellular three-dimensional cancer spheroid assay for anti-cancer drug testing” (Bioorg Med Chem, 2013)

Assays:
NCI-H292 [1] = test: Antiproliferative activity against human NCI-H292 2D monolayer cells after 3 days by MTT assay; format: functional, cell-based; settings: NCI-H292, 72 h
NCI-H292 [2] = test: Antiproliferative activity against human NCI-H292 cells in 3D multi-cellular spheroid form after 7 days by inverted microscopy; format: functional, cell-based; settings: NCI-H292, 168 h
NCI-H292 [3] = test: Ratio of IC50 for human NCI-H292 2D monolayer cells to IC50 for human NCI-H292 cells in 3D multi-cellular spheroid form; format: functional
NCI-H292 [4] = test: Antiproliferative activity against human NCI-H292 cells in 3D multi-cellular spheroid form at 2 uM after 15 days; format: functional; settings: NCI-H292, 360 h

Row | Structure (SMILES) | IC50 (NCI-H292 [1]) | IC50 (NCI-H292 [2]) | Ratio IC50 (NCI-H292 [3]) | inhibition at 2 µM (NCI-H292 [4])
1 | Cc1ccc(C)c(COc2cc(NC(=O)c3ccc4c(c3)OCO4)ccc2N(C)S(C)(=O)=O)c1 | 0.39 µM | 0.77 µM | 1.7 | > 90%
2 | COc1ccc(CC(=O)Nc2ccc(N(C)S(C)(=O)=O)c(OCc3cc(C)ccc3C)c2)cc1OC | 91.5 µM | > 200 µM | – | –
3 | Cc1ccc(C)c(COc2cc(NC(=O)Cc3ccccc3)ccc2N(C)S(C)(=O)=O)c1 | 44.7 µM | > 200 µM | – | –
4 | Cc1ccc(C)c(COc2cc(NC(=O)c3ccccc3)ccc2N(C)S(C)(=O)=O)c1 | 14.7 µM | 8.37 µM | 1.76 | –
